Experimental data as given in ChEMBL document CHEMBL3792297, “Studies on phenothiazines: New microtubule-interacting compounds with phenothiazine A-ring as potent antineoplastic agents” (Bioorg Med Chem, 2016).

What was measured:
Type in all cases: functional
[1] = Growth inhibition of human LOXIMVI cells after 48 hrs by SRB assay; settings: LOX IMVI
[2] = Growth inhibition of human PC3 cells after 48 hrs by SRB assay; settings: PC-3, 48 h
[3] = Growth inhibition of human IGROV1 cells at 10 uM after 48 hrs by SRB assay relative to control; settings: IGROV-1, 48 h, read-out: GI
[4] = Growth inhibition of human DU145 cells after 48 hrs by SRB assay; settings: DU-145, 48 h
[5] = Growth inhibition of human UACC257 cells at 10 uM after 48 hrs by SRB assay relative to control; settings: UACC-257, 48 h, read-out: GI
[6] = Growth inhibition of human OVCAR5 cells at 10 uM after 48 hrs by SRB assay relative to control; settings: OVCAR-5, 48 h, read-out: GI
[7] = Growth inhibition of human HL-60(TB) cells after 48 hrs by SRB assay; settings: HL-60, 48 h
[8] = system: NCI-H322M; assay: Growth inhibition of human NCI-H322M cells at 10 uM after 48 hrs by SRB assay relative to control; settings: read-out: GI
[9] = Growth inhibition of human IGROV1 cells after 48 hrs by SRB assay; settings: IGROV-1, 48 h
[10] = system: MDA-MB-231; assay: Growth inhibition of human MDA-MB-231 cells at 10 uM after 48 hrs by SRB assay relative to control; settings: MDA-MB-231, 48 h, read-out: GI
[11] = system: NCI-H460; assay: Growth inhibition of human NCI-H460 cells after 48 hrs by SRB assay; settings: NCI-H460, 48 h
[12] = system: ACHN; assay: Growth inhibition of human ACHN cells after 48 hrs by SRB assay
[13] = Growth inhibition of human Hs 578T cells after 48 hrs by SRB assay
[14] = system: NCI-H522; assay: Growth inhibition of human NCI-H522 cells at 10 uM after 48 hrs by SRB assay relative to control; settings: NCI-H522, 48 h, read-out: GI
[15] = Growth inhibition of human OVCAR4 cells after 48 hrs by SRB assay; settings: OVCAR-4, 48 h
[16] = Growth inhibition of human NCI-ADR-RES cells at 10 uM after 48 hrs by SRB assay relative to control; settings: read-out: GI
[17] = Growth inhibition of human HOP92 cells after 48 hrs by SRB assay; settings: HOP-92, 48 h
[18] = Growth inhibition of human OVCAR4 cells at 10 uM after 48 hrs by SRB assay relative to control; settings: OVCAR-4, 48 h, read-out: GI
[19] = Growth inhibition of human SKOV3 cells after 48 hrs by SRB assay; settings: SK-OV-3, 48 h
[20] = Growth inhibition of human HCC2998 cells at 10 uM after 48 hrs by SRB assay relative to control; settings: HCC 2998, 48 h, read-out: GI
[21] = system: NCI-H460; assay: Growth inhibition of human NCI-H460 cells at 10 uM after 48 hrs by SRB assay relative to control; settings: NCI-H460, 48 h, read-out: GI
[22] = Growth inhibition of human PC3 cells at 10 uM after 48 hrs by SRB assay relative to control; settings: PC-3, 48 h, read-out: GI
[23] = system: CCRF-CEM; assay: Growth inhibition of human CCRF-CEM cells after 48 hrs by SRB assay
[24] = Growth inhibition of human SF539 cells after 48 hrs by SRB assay; settings: SF-539, 48 h
[25] = Growth inhibition of human OVCAR5 cells after 48 hrs by SRB assay; settings: OVCAR-5, 48 h
[26] = system: A549; assay: Growth inhibition of human A549 cells at 10 uM after 48 hrs by SRB assay relative to control; settings: A549, 48 h, read-out: GI
[27] = Growth inhibition of human SNB19 cells at 10 uM after 48 hrs by SRB assay relative to control; settings: SNB-19, 48 h, read-out: GI
[28] = system: NCI-H23; assay: Growth inhibition of human NCI-H23 cells after 48 hrs by SRB assay; settings: NCI-H23, 48 h
[29] = Growth inhibition of human SF295 cells at 10 uM after 48 hrs by SRB assay relative to control; settings: SF-295, 48 h, read-out: GI
[30] = system: SK-MEL-28; assay: Growth inhibition of human SK-MEL-28 cells after 48 hrs by SRB assay; settings: SK-MEL-28, 48 h
[31] = system: MCF7; assay: Growth inhibition of human MCF7 cells at 10 uM after 48 hrs by SRB assay relative to control; settings: MCF7, 48 h, read-out: GI
[32] = Growth inhibition of human HCT15 cells after 48 hrs by SRB assay; settings: HCT-15, 48 h
[33] = Growth inhibition of human DU145 cells at 10 uM after 48 hrs by SRB assay relative to control; settings: DU-145, 48 h, read-out: GI
[34] = system: ACHN; assay: Growth inhibition of human ACHN cells at 10 uM after 48 hrs by SRB assay relative to control; settings: read-out: GI
[35] = system: M14; assay: Growth inhibition of human M14 cells after 48 hrs by SRB assay; settings: M14, 48 h
[36] = Growth inhibition of human COLO205 cells at 10 uM after 48 hrs by SRB assay relative to control; settings: COLO 205, 48 h, read-out: GI
[37] = system: KM12; assay: Growth inhibition of human KM12 cells after 48 hrs by SRB assay; settings: KM12, 48 h
[38] = Growth inhibition of human Caki1 cells after 48 hrs by SRB assay; settings: CAKI-1, 48 h
[39] = Growth inhibition of human COLO205 cells after 48 hrs by SRB assay; settings: COLO 205, 48 h
[40] = system: T47D; assay: Growth inhibition of human T47D cells at 10 uM after 48 hrs by SRB assay relative to control; settings: read-out: GI
[41] = Growth inhibition of human UO31 cells after 48 hrs by SRB assay; settings: UO-31, 48 h
[42] = Growth inhibition of human LOXIMVI cells at 10 uM after 48 hrs by SRB assay relative to control; settings: LOX IMVI, read-out: GI
[43] = Growth inhibition of human SF539 cells at 10 uM after 48 hrs by SRB assay relative to control; settings: SF-539, 48 h, read-out: GI
[44] = system: SK-MEL-2; assay: Growth inhibition of human SK-MEL-2 cells after 48 hrs by SRB assay; settings: SK-MEL-2, 48 h
[45] = Growth inhibition of human SNB75 cells at 10 uM after 48 hrs by SRB assay relative to control; settings: SNB-75, 48 h, read-out: GI
[46] = Growth inhibition of human OVCAR3 cells after 48 hrs by SRB assay; settings: OVCAR-3, 48 h

SMILES: COc1ccc(C(=O)N2c3ccccc3Sc3ccccc32)c(OC)c1
- GI50 [1]: 601 nM
- GI50 [2]: 430 nM
- inhibition of growth at 10 µM [3]: 47%
- GI50 [4]: 491 nM
- inhibition of growth at 10 µM [5]: 23%
- inhibition of growth at 10 µM [6]: 52%
- GI50 [7]: 297 nM
- inhibition of growth at 10 µM [8]: 38%
- GI50 [9]: 926 nM
- inhibition of growth at 10 µM [10]: 62%
- GI50 [11]: 406 nM
- GI50 [12]: 726 nM
- GI50 [13]: 482 nM
- inhibition of growth at 10 µM [14]: 100%
- GI50 [15]: 3170 nM
- inhibition of growth at 10 µM [16]: 100%
- GI50 [17]: 374 nM
- inhibition of growth at 10 µM [18]: 43%
- GI50 [19]: 715 nM
- inhibition of growth at 10 µM [20]: 87%
- inhibition of growth at 10 µM [21]: 90%
- inhibition of growth at 10 µM [22]: 89%
- GI50 [23]: 394 nM
- GI50 [24]: 333 nM
- GI50 [25]: 10000 nM
- inhibition of growth at 10 µM [26]: 69%
- inhibition of growth at 10 µM [27]: 68%
- GI50 [28]: 776 nM
- inhibition of growth at 10 µM [29]: 88%
- GI50 [30]: 942 nM
- inhibition of growth at 10 µM [31]: 80%
- GI50 [32]: 464 nM
- inhibition of growth at 10 µM [33]: 90%
- inhibition of growth at 10 µM [34]: 57%
- GI50 [35]: 359 nM
- inhibition of growth at 10 µM [36]: 100%
- GI50 [37]: 438 nM
- GI50 [38]: 574 nM
- GI50 [39]: 333 nM
- inhibition of growth at 10 µM [40]: 59%
- GI50 [41]: 739 nM
- inhibition of growth at 10 µM [42]: 62%
- inhibition of growth at 10 µM [43]: 100%
- GI50 [44]: 585 nM
- inhibition of growth at 10 µM [45]: 82%
- GI50 [46]: 322 nM

SMILES: O=C(c1ccc2c(c1)Sc1ccccc1N2)c1c[nH]c2ccccc12
- GI50 [2]: 544 nM
- inhibition of growth at 10 µM [3]: 71%
- GI50 [4]: 679 nM
- inhibition of growth at 10 µM [5]: 43%
- inhibition of growth at 10 µM [6]: 60%
- GI50 [7]: 398 nM
- GI50 [9]: 683 nM
- inhibition of growth at 10 µM [10]: 54%
- GI50 [11]: 347 nM
- GI50 [12]: 671 nM
- GI50 [13]: 239 nM
- inhibition of growth at 10 µM [14]: 100%
- GI50 [15]: 4110 nM
- inhibition of growth at 10 µM [16]: 100%
- GI50 [17]: 585 nM
- inhibition of growth at 10 µM [18]: 39%
- GI50 [19]: 380 nM
- inhibition of growth at 10 µM [20]: 64%
- inhibition of growth at 10 µM [21]: 90%
- inhibition of growth at 10 µM [22]: 74%
- GI50 [23]: 328 nM
- GI50 [24]: 258 nM
- GI50 [25]: 565 nM
- inhibition of growth at 10 µM [26]: 77%
- inhibition of growth at 10 µM [27]: 41%
- GI50 [28]: 389 nM
- inhibition of growth at 10 µM [29]: 96%
- GI50 [30]: 630 nM
- inhibition of growth at 10 µM [31]: 80%
- GI50 [32]: 408 nM
- inhibition of growth at 10 µM [33]: 91%
- inhibition of growth at 10 µM [34]: 45%
- GI50 [35]: 319 nM
- inhibition of growth at 10 µM [36]: 100%
- GI50 [37]: 311 nM
- GI50 [38]: 359 nM
- GI50 [39]: 285 nM
- inhibition of growth at 10 µM [40]: 72%
- GI50 [41]: 510 nM
- inhibition of growth at 10 µM [42]: 85%
- inhibition of growth at 10 µM [43]: 100%
- GI50 [44]: 309 nM
- inhibition of growth at 10 µM [45]: 100%
- GI50 [46]: 360 nM
